How the values were obtained:
HeLa = test: Antiproliferative activity against human HeLa cells after 48 hrs; format: functional, cell-based
A549 = test: Antiproliferative activity against human A549 cells after 48 hrs; format: functional, cell-based; conditions: A549, 48 h

SMILES | IC50 (HeLa) [µM] | IC50 (A549) [µM]
O=C1Nc2ccccc2/C1=C\c1n[nH]c2ccccc2c1=O | > 100 | > 100
O=C1Nc2ccccc2/C1=C/c1nc2ccccc2c(=O)[nH]1 | 15.2 | > 100
O=C1Nc2ccccc2/C1=C\c1nnc2ccccc2c1Cl | 7.8 | 93.3
CC(=O)N1C(=O)/C(=C/c2nnc3ccccc3c2Cl)c2ccccc21 | 28.8 | > 100
COc1c(/C=C2/C(=O)Nc3ccccc32)nnc2ccccc12 | 19.6 | > 100
